Values quoted from earlier work, collected in patent US11484035B2, “Synergistic composition of a nematicide” (TELLURIS BIOTECH INDIA PRIVATE LIMITED, priority 2017, dated 2022).

Test system: nematodes
Conditions: individual peptides

| Sequence | effective concentration for nematicidal activity |
| --- | --- |
| DLLRPVVIAPQFSRQ (Caenorhabditis elegans) [Peptide 2, 15 amino acid peptide, 99-113 amino acid stretch of CED-4 protein] | about 1 mg/ml |
| FPKFMQLHQKFY (Caenorhabditis elegans) [Peptide 12, 12 amino acid peptide, 529-540 amino acid stretch of CED-4 protein] | about 1 mg/ml |
| RQMLDRKLLLGNVPKQMTC (Caenorhabditis elegans) [Peptide 3, 19 amino acid peptide, 112-130 amino acid stretch of CED-4 protein] | about 1 mg/ml |
